Our source for the Activity and IC50 values is ChEMBL document CHEMBL4261621, “Synthesis of enamino-2-oxindoles via conjugate addition between α-azido ketones and 3-alkenyl oxindoles: Cytotoxicity evaluation and apoptosis inducing studies” (Bioorg Med Chem Lett, 2018).

Structures are written as SMILES. Bounds are passed on as bounds.

Experiment [1] deals with MDA-MB-231. Put plainly: Cytotoxicity against human MDA-MB-231 cells at 30 uM after 48 hrs by MTT assay relative to control. In kind it is functional. A general note: Tetrazolium dyes change colour on reduction, which living cells bring about.
Experiment [2] concerns NCI-H460. Put plainly: Cytotoxicity against human NCI-H460 cells at 30 uM after 48 hrs by MTT assay relative to control. Type of experiment: functional.
Experiment [3] relates to HCT-116. Nature of the experiment: Cytotoxicity against human HCT116 cells after 72 hrs by MTT assay. Type of experiment: functional, cell-based. The settings on record: HCT-116, 72 h.
The subject of experiment [4] is HCT-116. Nature of the experiment: Cytotoxicity against human HCT116 cells at 30 uM after 48 hrs by MTT assay relative to control. Type of experiment: functional.
In experiment [5] the test system is NCI-H460. Put plainly: Cytotoxicity against human NCI-H460 cells after 72 hrs by MTT assay. Type of experiment: functional, cell-based. The settings on record: NCI-H460, 72 h.
Experiment [6] concerns A549. Nature of the experiment: Cytotoxicity against human A549 cells after 72 hrs by MTT assay. In kind it is functional, cell-based. The settings on record: A549, 72 h.
Experiment [7] relates to HCT-15. Nature of the experiment: Cytotoxicity against human HCT15 cells at 30 uM after 48 hrs by MTT assay relative to control. Type of experiment: functional.
Experiment [8] has as its system HCT-15. Put plainly: Cytotoxicity against human HCT15 cells after 72 hrs by MTT assay. Type of experiment: functional, cell-based. The settings on record: HCT-15, 72 h.
In experiment [9] the test system is MDA-MB-231. Nature of the experiment: Cytotoxicity against human MDA-MB-231 cells after 72 hrs by MTT assay. The settings on record: MDA-MB-231, 72 h. In kind it is functional, cell-based.
The subject of experiment [10] is HeLa. Put plainly: Cytotoxicity against human HeLa cells after 72 hrs by MTT assay. Type of experiment: functional, cell-based.
Experiment [11] relates to HeLa. Nature of the experiment: Cytotoxicity against human HeLa cells at 30 uM after 48 hrs by MTT assay relative to control. Type of experiment: functional.
For experiment [12], the system named is A549. Nature of the experiment: Cytotoxicity against human A549 cells at 30 uM after 48 hrs by MTT assay relative to control. In kind it is functional.

In the case of `COC(=O)/C(=C(\N)C(=O)c1ccccc1)C1C(=O)N(Cc2ccccc2)c2ccc(C)cc21` (stereo unspecified), the Activity in experiment [1], in experiment [2], in [4], in experiment [7], in [11] and in experiment [12] was over 50% in each case. In addition, the IC50 (as a rule, the concentration that inhibits the measured activity by half) in experiment [3] is 3.31 µM; in experiment [5], 1.51 µM; in [6], 6.6 µM; in [8] it was 2.67 µM; in experiment [9], 13.9 µM; in [10], 6.28 µM.
`CCOC(=O)/C(=C(\N)C(=O)c1ccc(OC)cc1)C1C(=O)N(Cc2ccccc2)c2ccc(Cl)cc21` (stereo unspecified): the Activity in experiment [1], in experiment [2], in experiment [4], in experiment [7], in experiment [11] and in experiment [12] was over 50% in each case. Moreover, the IC50 in experiment [3] came to 3.82 µM; in experiment [5], 3.32 µM; in experiment [6], 3.25 µM; in experiment [8] it was 3.15 µM; in experiment [9], 6.96 µM; in [10] it was 3.72 µM.
Consider `CCOC(=O)/C(=C(\N)C(=O)c1ccccc1)C1C(=O)N(Cc2ccc(Br)cc2)c2ccccc21` (stereo unspecified), for which the Activity in experiment [1], in experiment [2], in experiment [4], in experiment [7], in experiment [11] and in experiment [12] was over 50% in each case. Moreover, the IC50 in [3] turned out to be 3.26 µM; in experiment [5] it was 3.9 µM; in experiment [6] it was 3.23 µM; in [8], 3.17 µM; in experiment [9], 7.13 µM; in experiment [10], 7.28 µM.
Consider `CCOC(=O)/C(=C(\N)C(=O)c1ccccc1)C1C(=O)N(Cc2ccccc2)c2ccc(Br)cc21` (stereo unspecified), for which the Activity in experiment [1], in experiment [2], in [4], in experiment [7], in experiment [11] and in [12] was over 50% each time. The IC50 is 28.7 µM in [3]; 18.5 µM in experiment [5]; 27.7 µM in experiment [6]; 26.1 µM in experiment [8]; 28.2 µM in [9]; 25.6 µM in [10].
On to `O=c1[nH]cc(F)c(=O)[nH]1` [FLUOROURACIL], for which the IC50 in [3] came out at 11.6 µM; in [5], 11.8 µM; in [6], 4.3 µM; in experiment [8], 11.9 µM; in [9], 21.1 µM; in experiment [10] it was 10.8 µM.
As to `COC(=O)/C(=C(\N)C(=O)c1ccccc1)C1C(=O)Nc2ccc(Br)cc21` (stereo unspecified), the Activity in experiment [1], in [2], in [4], in experiment [7], in experiment [11] and in experiment [12] was over 50% each time. The IC50 in experiment [3] was 25.9 µM; in experiment [5], 27.6 µM; in [6], 13 µM; in [8], 28.5 µM; in experiment [9], 6.85 µM; in experiment [10] it was 12.2 µM.
